{"source": "ChEMBL document CHEMBL1201862", "about": "“PubChem BioAssay data set” (2004)", "key": {"[1]": {"biological_target": "G-protein coupled receptor 35 (Homo sapiens, UniProt Q9HC97)", "sequence (Q9HC97 whole entry)": "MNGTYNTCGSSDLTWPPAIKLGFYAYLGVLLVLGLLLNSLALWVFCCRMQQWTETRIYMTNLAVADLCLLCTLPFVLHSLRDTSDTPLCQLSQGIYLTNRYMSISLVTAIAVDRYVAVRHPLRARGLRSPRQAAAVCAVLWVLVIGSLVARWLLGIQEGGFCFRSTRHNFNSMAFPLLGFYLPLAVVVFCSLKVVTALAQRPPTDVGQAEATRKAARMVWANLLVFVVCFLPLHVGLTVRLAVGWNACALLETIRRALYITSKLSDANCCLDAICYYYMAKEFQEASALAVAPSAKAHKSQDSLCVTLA", "assay": "SAR Analysis for the identification of Selective Antagonists of ERK1/2 Activity in GPR35-Overexpressing U2OS Cells. [Related pubchem assays: 2079, 2058 ]", "assay_type": "functional, cell-based"}, "[2]": {"biological_target": "G-protein coupled receptor 55 (Homo sapiens, UniProt Q9Y2T6)", "sequence (Q9Y2T6 whole entry)": "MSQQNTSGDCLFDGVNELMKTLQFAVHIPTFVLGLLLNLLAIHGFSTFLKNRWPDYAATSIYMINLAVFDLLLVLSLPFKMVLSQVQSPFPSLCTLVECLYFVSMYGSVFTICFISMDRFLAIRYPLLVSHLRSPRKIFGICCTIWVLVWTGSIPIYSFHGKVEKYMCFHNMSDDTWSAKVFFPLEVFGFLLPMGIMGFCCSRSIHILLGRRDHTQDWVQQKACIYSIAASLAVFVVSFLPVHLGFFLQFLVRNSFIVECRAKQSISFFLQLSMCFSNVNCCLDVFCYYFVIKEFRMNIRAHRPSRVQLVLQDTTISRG", "assay": "blockers of GPR55 signalling, imaged – imaging, image-based, counter-screen for GPR35 antagonist project, SAR follow-up (AID 2397)", "assay_type": "functional"}, "[3]": {"biological_target": "Keap1/Nrf2 (Homo sapiens, UniProt Q14145)", "sequence (Q16236 whole entry)": "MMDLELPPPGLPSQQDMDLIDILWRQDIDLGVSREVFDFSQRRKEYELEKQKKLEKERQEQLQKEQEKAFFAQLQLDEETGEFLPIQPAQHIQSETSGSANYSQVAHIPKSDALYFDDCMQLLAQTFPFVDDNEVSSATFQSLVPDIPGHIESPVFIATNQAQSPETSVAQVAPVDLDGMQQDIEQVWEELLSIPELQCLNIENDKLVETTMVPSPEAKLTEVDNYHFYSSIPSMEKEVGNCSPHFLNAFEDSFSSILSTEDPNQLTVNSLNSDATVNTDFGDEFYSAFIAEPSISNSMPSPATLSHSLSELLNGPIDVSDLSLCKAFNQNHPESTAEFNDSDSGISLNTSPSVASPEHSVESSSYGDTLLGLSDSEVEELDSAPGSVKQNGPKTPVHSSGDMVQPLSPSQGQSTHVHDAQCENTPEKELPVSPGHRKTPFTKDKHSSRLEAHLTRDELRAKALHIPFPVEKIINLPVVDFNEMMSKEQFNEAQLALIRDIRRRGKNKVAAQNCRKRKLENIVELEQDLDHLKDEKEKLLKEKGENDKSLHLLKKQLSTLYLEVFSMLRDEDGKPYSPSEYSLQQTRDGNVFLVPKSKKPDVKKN", "sequence (Q14145 whole entry)": "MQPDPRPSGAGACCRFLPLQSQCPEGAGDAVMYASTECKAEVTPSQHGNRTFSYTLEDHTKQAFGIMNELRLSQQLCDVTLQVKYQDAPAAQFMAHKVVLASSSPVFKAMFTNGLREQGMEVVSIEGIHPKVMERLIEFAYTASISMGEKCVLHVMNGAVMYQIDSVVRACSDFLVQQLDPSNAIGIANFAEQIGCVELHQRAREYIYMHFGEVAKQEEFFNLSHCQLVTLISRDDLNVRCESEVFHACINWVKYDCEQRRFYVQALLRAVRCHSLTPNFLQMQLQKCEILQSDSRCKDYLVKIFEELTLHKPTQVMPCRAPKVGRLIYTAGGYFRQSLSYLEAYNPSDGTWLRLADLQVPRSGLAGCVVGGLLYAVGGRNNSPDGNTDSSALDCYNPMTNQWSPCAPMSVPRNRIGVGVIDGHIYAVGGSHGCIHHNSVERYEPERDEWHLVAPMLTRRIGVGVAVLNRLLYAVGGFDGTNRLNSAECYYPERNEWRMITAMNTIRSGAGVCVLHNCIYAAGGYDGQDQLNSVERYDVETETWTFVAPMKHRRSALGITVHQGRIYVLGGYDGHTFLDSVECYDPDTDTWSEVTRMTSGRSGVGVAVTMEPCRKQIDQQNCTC", "assay": "disruptors of Keap1 binding to Nrf2 peptide – biochemical, fluorescence polarization, cherry-picked samples, dose response (AID 588683)"}, "[4]": {"biological_target": "Beta-lactamase (Pseudomonas aeruginosa, UniProt Q79MP6)", "sequence (Q79MP6 whole entry)": "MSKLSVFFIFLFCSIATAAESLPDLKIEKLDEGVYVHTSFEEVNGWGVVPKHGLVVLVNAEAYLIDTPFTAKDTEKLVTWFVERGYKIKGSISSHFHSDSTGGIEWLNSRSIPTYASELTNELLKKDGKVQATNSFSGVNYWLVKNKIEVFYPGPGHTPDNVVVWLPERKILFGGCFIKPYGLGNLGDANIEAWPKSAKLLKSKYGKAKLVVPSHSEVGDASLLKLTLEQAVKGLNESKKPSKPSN"}, "[5]": {"biological_target": "ORF 73 (Human herpesvirus 8, UniProt O40947)", "sequence (O40947 whole entry)": "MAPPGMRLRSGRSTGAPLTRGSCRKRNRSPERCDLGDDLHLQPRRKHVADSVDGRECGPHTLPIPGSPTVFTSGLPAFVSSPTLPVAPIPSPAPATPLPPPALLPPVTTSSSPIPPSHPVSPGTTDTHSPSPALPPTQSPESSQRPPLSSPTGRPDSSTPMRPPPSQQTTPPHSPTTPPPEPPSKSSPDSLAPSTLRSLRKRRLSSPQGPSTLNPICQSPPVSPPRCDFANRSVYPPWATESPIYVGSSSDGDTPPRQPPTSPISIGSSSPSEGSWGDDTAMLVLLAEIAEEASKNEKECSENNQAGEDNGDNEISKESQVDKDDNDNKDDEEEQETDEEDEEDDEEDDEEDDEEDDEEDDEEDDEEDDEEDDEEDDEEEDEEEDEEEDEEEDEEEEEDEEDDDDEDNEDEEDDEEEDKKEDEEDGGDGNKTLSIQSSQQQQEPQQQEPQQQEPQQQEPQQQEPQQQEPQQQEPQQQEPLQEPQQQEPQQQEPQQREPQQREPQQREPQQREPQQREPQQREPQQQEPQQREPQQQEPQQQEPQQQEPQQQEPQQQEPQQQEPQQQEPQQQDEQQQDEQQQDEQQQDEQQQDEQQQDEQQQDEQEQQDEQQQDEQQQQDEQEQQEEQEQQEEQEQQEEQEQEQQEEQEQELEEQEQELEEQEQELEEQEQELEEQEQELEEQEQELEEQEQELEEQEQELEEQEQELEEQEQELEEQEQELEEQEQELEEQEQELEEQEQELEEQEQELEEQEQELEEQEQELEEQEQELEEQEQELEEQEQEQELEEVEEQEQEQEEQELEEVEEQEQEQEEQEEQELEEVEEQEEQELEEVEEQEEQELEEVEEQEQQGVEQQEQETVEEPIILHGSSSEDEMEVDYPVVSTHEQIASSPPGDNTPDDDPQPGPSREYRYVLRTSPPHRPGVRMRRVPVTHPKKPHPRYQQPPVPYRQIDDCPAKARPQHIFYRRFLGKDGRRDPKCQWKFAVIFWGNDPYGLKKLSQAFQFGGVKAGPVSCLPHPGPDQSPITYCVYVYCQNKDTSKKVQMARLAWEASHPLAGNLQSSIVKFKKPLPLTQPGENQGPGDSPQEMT", "assay": "KSHV LANA DNA-binding disruption – biochemical, fluorescence polarization, cherry-picked samples, dose response (AID 504725);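 also: fluorescence polarization of a labeled DNA duplex reporting LANA DNA binding; potency is for inhibitors that block LANA binding to the DNA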", "design": "species or system Human gammaherpesvirus 8"}, "[6]": {"biological_target": "Beta-lactamase (Salmonella choleraesuis (strain SC-B67), UniProt Q5J463)", "sequence (Q5J463 whole entry)": "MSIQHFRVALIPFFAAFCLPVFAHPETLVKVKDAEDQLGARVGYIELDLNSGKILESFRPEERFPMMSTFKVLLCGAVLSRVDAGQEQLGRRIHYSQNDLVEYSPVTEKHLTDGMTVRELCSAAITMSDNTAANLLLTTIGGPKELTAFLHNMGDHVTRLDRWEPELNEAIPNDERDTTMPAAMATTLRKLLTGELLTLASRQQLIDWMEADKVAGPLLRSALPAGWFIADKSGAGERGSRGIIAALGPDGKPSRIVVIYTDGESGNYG"}, "[7]": {"assay": "Luminescence Cell-Based Dose Retest to Confirm Inhibitors of Cancer Stem Cells. [Related pubchem assays (depositor defined):AID2717, AID2721]", "assay_type": "functional", "conditions": "Homo sapiens"}, "[8]": {"assay": "viability loss of HMLE_sh_eGFP cells – cell-based, luminescence, counter-screen for HMLE_sh_ECad selective toxicity project, dose response (AID 463074);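 also: HMLE human mammary epithelial cells expressing control shRNA against eGFP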", "assay_type": "functional, Homo sapiens"}, "[9]": {"biological_target": "Bifunctional protein GlmU (Mycobacterium tuberculosis, UniProt P9WMN3)", "sequence (P9WMN3 whole entry)": "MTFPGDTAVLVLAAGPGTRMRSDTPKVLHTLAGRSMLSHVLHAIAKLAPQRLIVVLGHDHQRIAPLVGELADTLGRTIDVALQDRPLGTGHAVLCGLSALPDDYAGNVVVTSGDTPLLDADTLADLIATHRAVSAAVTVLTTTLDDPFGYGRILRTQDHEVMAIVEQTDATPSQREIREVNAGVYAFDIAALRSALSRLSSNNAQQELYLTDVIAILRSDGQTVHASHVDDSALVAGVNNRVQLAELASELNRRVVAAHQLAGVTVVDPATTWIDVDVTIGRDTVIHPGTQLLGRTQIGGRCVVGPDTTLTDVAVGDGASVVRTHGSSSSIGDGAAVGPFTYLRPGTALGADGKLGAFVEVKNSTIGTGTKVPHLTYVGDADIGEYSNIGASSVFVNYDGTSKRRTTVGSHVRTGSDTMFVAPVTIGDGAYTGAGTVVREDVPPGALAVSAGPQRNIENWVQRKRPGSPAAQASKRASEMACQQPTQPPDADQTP", "assay": "Inhibitors of Mycobacterial Glucosamine-1-phosphate acetyl transferase (GlmU). Secondary screen.", "design": "species or system Mycobacterium tuberculosis H37Rv"}, "[10]": {"biological_target": "DNA dC->dU-editing enzyme APOBEC-3A (Homo sapiens, UniProt P31941)", "sequence (P31941 whole entry)": "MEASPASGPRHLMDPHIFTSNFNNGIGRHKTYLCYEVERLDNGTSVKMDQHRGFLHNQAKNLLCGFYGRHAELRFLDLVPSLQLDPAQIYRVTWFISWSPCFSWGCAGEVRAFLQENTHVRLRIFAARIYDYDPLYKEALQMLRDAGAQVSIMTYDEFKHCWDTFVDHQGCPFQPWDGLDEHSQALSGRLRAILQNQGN", "assay": "A3A deaminase inhibition for selectivity – biochemical, dose response (AID 504722)", "assay_type": "functional"}, "[11]": {"biological_target": "T1, Small ubiquitin-related modifier 1 (Homo sapiens, UniProt P63165)", "T1 sequence (P63165 whole entry)": "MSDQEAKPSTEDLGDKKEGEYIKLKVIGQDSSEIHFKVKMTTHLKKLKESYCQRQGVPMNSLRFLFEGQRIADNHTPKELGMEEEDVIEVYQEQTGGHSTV", "assay": "SUMO1 protein-protein binding blockers, potency – biochemical, FRET, dose response (AID 624383)", "assay_type": "functional", "conditions": "read-out: IC50_Mean"}, "[12]": {"biological_target": "T2, Carboxy-terminal domain RNA polymerase II polypeptide A small phosphatase 1 (Homo sapiens, UniProt Q9GZU7)", "T2 sequence (Q9GZU7 whole entry)": "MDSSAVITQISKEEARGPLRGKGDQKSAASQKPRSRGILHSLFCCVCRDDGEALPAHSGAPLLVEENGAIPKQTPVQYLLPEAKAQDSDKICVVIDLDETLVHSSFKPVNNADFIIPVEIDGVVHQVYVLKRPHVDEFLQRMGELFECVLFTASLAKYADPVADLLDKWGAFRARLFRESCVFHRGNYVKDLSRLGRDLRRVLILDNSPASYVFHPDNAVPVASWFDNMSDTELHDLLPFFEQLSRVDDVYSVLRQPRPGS", "assay": "CTDSP1 inhibitors, concentration-response, biochemical, absorbance readout, ultra-high-throughput screen actives (AID 540297)", "assay_type": "functional"}, "[13]": {"biological_target": "T3, Apoptotic protease-activating factor 1 (Homo sapiens, UniProt O14727)", "T3 sequence (O14727 whole entry)": "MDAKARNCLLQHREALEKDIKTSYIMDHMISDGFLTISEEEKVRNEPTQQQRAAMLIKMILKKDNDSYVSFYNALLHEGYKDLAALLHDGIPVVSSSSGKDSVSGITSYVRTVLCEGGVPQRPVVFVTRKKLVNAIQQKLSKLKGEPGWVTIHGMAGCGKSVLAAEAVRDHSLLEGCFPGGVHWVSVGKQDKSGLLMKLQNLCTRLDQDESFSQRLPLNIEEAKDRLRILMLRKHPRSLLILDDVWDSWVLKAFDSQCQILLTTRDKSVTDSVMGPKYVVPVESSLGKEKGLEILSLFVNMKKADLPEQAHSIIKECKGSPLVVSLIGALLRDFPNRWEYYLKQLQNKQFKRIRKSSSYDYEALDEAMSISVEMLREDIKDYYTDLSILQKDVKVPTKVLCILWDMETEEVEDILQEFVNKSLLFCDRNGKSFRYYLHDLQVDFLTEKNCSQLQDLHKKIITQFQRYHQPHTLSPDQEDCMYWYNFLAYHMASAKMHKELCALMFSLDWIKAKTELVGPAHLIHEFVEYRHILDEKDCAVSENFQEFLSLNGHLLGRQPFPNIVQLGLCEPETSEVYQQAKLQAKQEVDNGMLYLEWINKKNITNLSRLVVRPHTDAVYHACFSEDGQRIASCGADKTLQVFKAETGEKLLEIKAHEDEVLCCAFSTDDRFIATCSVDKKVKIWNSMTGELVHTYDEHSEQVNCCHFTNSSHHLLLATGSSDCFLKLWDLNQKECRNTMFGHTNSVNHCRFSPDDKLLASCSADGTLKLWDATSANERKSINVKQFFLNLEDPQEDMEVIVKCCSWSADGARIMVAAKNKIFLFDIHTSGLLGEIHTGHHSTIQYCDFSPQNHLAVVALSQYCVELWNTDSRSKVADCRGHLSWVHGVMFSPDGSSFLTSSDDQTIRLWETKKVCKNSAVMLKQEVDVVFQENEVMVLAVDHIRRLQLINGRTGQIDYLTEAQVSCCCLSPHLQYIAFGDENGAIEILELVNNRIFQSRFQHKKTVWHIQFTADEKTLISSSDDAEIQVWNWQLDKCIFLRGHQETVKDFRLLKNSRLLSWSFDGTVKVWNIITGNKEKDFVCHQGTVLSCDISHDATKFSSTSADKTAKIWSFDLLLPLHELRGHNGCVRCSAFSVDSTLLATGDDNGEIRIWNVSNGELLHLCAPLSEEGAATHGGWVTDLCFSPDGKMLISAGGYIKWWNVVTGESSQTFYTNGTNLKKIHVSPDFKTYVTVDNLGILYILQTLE", "assay": "activation of Apaf-1 mediated apoptosis – fluorescent, uHTS hits, dose response (AID 588554)", "assay_type": "functional"}, "[14]": {"biological_target": "DNA dC->dU-editing enzyme APOBEC-3G (Homo sapiens, UniProt Q9HC16)", "sequence (Q9HC16 whole entry)": "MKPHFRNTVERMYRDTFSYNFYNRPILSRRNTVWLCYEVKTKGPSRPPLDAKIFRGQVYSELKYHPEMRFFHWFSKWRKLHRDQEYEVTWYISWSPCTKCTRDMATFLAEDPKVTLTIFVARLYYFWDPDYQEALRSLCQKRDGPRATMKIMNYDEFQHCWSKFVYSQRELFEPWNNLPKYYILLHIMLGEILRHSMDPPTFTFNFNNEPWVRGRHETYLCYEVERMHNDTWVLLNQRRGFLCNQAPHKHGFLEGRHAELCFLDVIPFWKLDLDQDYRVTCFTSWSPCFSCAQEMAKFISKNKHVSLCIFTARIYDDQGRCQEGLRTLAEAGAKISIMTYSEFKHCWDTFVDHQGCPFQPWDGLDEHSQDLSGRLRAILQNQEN", "assay": "Dose Response confirmation of small molecule APOBEC3G DNA Deaminase Inhibitors via a fluorescence-based single-stranded DNA deaminase assay. [Related pubchem assays (depositor defined):AID493012, AID493028]", "assay_type": "functional"}, "[15]": {"biological_target": "DNA (cytosine-5)-methyltransferase 1 (Homo sapiens, UniProt P26358)", "assay": "inhibition of DNA methylation by DNMT1 – biochemical, fluorescent molecular beacon, confirmation (AID 602386)", "assay_type": "functional"}, "[16]": {"biological_target": "T1, Small ubiquitin-related modifier 1", "assay": "SUMO1 protein interaction blockers, potency – biochemical, fluorescence polarization, uHTS hits, dose response (AID 624382)", "assay_type": "functional", "conditions": "read-out: IC50_Mean"}}, "note": "The source made the active and inactive calls.", "data": [{"smiles": "CCOc1ccc(NC(=O)CSc2nc3ccsc3c(=O)n2Cc2ccc(C(=O)O)cc2)cc1", "values": [{"measurement": "IC50", "setting": "[1]", "value": "14.5 µM (not active)"}, {"measurement": "IC50", "setting": "[2]", "value": "> 32 µM (inactive)"}]}, {"smiles": "Nc1ccc2c3c(cccc13)C(=O)N(c1ccccc1)C2=O", "values": [{"measurement": "AC50", "setting": "[3]", "value": "1.4 µM (active)"}, {"measurement": "IC50", "setting": "[4]", "value": "12.7 µM (inactive)"}, {"measurement": "AC50", "setting": "[5]", "value": "5.56 µM (active)"}, {"measurement": "IC50", "setting": "[6]", "value": "4.41 µM (active)"}]}, {"smiles": "Oc1ccccc1C1CC(c2cccs2)=NC(c2cccc(Br)c2)N1", "note": "(stereo unspecified)", "values": [{"measurement": "AC50", "setting": "[7]", "value": "21.1 µM (active)"}, {"measurement": "AC50", "setting": "[8]", "value": "23.9 µM (active)"}]}, {"smiles": "C=C(C)C(=O)Nc1cccc(C2=NOC3(C2)C[C@H](C(N)=O)N(C(=O)COc2ccc(Cl)cc2)C3)c1", "note": "(stereo partly specified)", "values": [{"measurement": "IC50", "setting": "[9]", "value": "118 µM (active)"}, {"measurement": "IC50", "setting": "[10]", "value": "> 100 µM (inactive)"}, {"measurement": "IC50", "setting": "[11]", "value": "1.94 µM (active)"}, {"measurement": "IC50", "setting": "[12]", "value": "3.74 µM (active)"}, {"measurement": "EC50", "setting": "[13]", "value": "4.23 µM (active)"}, {"measurement": "IC50", "setting": "[14]", "value": "7.21 µM (active)"}, {"measurement": "IC50", "setting": "[15]", "value": "5.52 µM (active)"}, {"measurement": "IC50", "setting": "[16]", "value": "> 66.6 µM (inactive)"}]}]}
